System: genes predictive for the anti-inflammatory macrolide effect
Assay: Genes statistically predictive of Clari response: differentially expressed with Clari but not the inactive macrolides MAA or Josa (Appendix E)
Type: cell-based
From the text: In the case of the above-mentioned (i) related to arachidonic acid biosynthesis, specifically, methods of the embodiment involve assaying whether a test macrolide alters biosynthesis of arachidonic acid, alters the expression or activities of enzymes involved in the biosynthesis or activation of arachidonic acid (e.g., arachidonic acid CoA synthetase, delta-6 desaturase, fatty acid elongase, and delta-5 desaturase, AA-related genes in Tables 2 and 3), or alters the expression of genes identified as predictive for the anti-inflammatory macrolide effect (Appendix E). Assays in which arachidonic acid or gene expression or enzymatic activity is detected can be carried out after contacting a cell with a test macrolide. Any cell line that secretes prostaglandin or produces arachidonic acid can be used. Epithelial and macrophages lines (e.g., A549 or THP-1) are suitable for this purpose; other cell lines can be identified by carrying out assays such as those described in the specific Examples, below. Alternatively, screening assays can be carried out after adding a test macrolide to an in vitro cell system (e.g., a cellular extract or liver microsome preparation) or an in vitro enzyme assay system.

## CC[C@H]1OC(=O)[C@H](C)[C@@H](O[C@H]2C[C@@](C)(OC)[C@@H](O)[C@H](C)O2)[C@H](C)[C@@H](O[C@@H]2O[C@H](C)C[C@H](N(C)C)[C@H]2O)[C@](C)(OC)C[C@@H](C)C(=O)[C@H](C)[C@@H](O)[C@]1(C)O [clarithromycin]
SpotID 48807, MAA and Josa vs. Clari
  group mean, gene UNG: 0.91
SpotID 48914, MAA and Josa vs. Clari
  group mean, gene TUBB: 0.83
SpotID 48921, MAA and Josa vs. Clari
  group mean, gene ITGAE: 0.99
SpotID 48921, pooled group mean
  mean group, ITGAE: 0.97
SpotID 48971, MAA and Josa vs. Clari
  group mean, gene P4HA2: 1.48
SpotID 48998, MAA and Josa vs. Clari
  group mean, gene FADS1: 1.44
SpotID 49006, MAA and Josa vs. Clari
  group mean, gene PRSS25: 1.17
SpotID 49006, pooled group mean
  mean group, PRSS25: 1.14
SpotID 49007, MAA and Josa vs. Clari
  group mean, gene TM9SF2: 1.20
SpotID 49007, pooled group mean
  mean group, TM9SF2: 1.18
SpotID 49013, MAA and Josa vs. Clari
  group mean, gene BBC3: 1.07
SpotID 49028, MAA and Josa vs. Clari
  group mean, gene BNIP3L: 1.25
SpotID 49028, pooled group mean
  mean group, BNIP3L: 1.20
SpotID 49032, MAA and Josa vs. Clari
  group mean, gene GSK3B: 1.23
SpotID 49047, MAA and Josa vs. Clari
  group mean, gene GLUD1: 0.95
SpotID 49117, MAA and Josa vs. Clari
  group mean, gene SERPINB1: 0.84
SpotID 49117, pooled group mean
  mean group, SERPINB1: 0.88
SpotID 49142, MAA and Josa vs. Clari
  group mean, gene PPIB: 1.18
SpotID 49144, MAA and Josa vs. Clari
  group mean, gene PIK3R3: 1.15
SpotID 49155, MAA and Josa vs. Clari
  group mean, gene ARTS-1: 0.81
SpotID 49155, pooled group mean
  mean group, ARTS-1: 0.86
SpotID 49163, MAA and Josa vs. Clari
  group mean, gene LGALS3: 1.23
SpotID 49169, MAA and Josa vs. Clari
  group mean, gene RRS1: 0.88
SpotID 49169, pooled group mean
  mean group, RRS1: 0.93
SpotID 49172, MAA and Josa vs. Clari
  group mean, gene YAF2: 0.90
SpotID 49177, MAA and Josa vs. Clari
  group mean, gene NEDD8: 1.06
SpotID 49183, MAA and Josa vs. Clari
  group mean, gene SRRM1: 0.81
SpotID 49197, MAA and Josa vs. Clari
  group mean, gene FUCA1: 1.13
SpotID 49233, MAA and Josa vs. Clari
  group mean, gene APOE: 1.03
SpotID 49233, pooled group mean
  mean group, APOE: 1.01
SpotID 49272, pooled group mean
  mean group, TNFRSF10B: 1.08
SpotID 49314, MAA and Josa vs. Clari
  group mean, gene PPIB: 1.18
SpotID 49314, pooled group mean
  mean group, PPIB: 1.16
SpotID 49318, MAA and Josa vs. Clari
  group mean, gene YWHAH: 0.95
SpotID 49318, pooled group mean
  mean group, YWHAH: 0.97
SpotID 49347, MAA and Josa vs. Clari
  group mean, gene HNRPA3: 0.71
SpotID 49352, MAA and Josa vs. Clari
  group mean, gene NCBP2: 1.03
SpotID 49360, MAA and Josa vs. Clari
  group mean, gene TEB4: 0.88
SpotID 49360, pooled group mean
  mean group, TEB4: 0.94
SpotID 49364, MAA and Josa vs. Clari
  group mean, gene ABCE1: 0.92
SpotID 49373, MAA and Josa vs. Clari
  group mean, gene EIF3S9: 0.94
SpotID 49374 (gene symbol not given), pooled group mean
  mean group, SpotID 49374: 1.03
SpotID 49374, MAA and Josa vs. Clari
  group mean, SpotID 49374 (gene symbol not given): 1.04
SpotID 49380, MAA and Josa vs. Clari
  group mean, gene SLC35A2: 1.11
SpotID 49391, MAA and Josa vs. Clari
  group mean, gene PPP3CB: 0.92
SpotID 49435, MAA and Josa vs. Clari
  group mean, gene TRRAP: 0.89
SpotID 49435, pooled group mean
  mean group, TRRAP: 0.92
SpotID 49446, MAA and Josa vs. Clari
  group mean, gene SRC: 1.17
SpotID 49446, pooled group mean
  mean group, SRC: 1.14
SpotID 49481, MAA and Josa vs. Clari
  group mean, gene LOC55871: 1.05
SpotID 49490, MAA and Josa vs. Clari
  group mean, gene VTN: 0.91
SpotID 49490, pooled group mean
  mean group, VTN: 0.94
SpotID 49511, MAA and Josa vs. Clari
  group mean, gene MATN2: 1.17
SpotID 49512, MAA and Josa vs. Clari
  group mean, gene GC20: 1.16
SpotID 49514, MAA and Josa vs. Clari
  group mean, gene UBC: 1.11
SpotID 49514, pooled group mean
  mean group, UBC: 1.09
SpotID 49524, MAA and Josa vs. Clari
  group mean, gene AP1G2: 0.97
SpotID 49524, pooled group mean
  mean group, AP1G2: 0.92
SpotID 49546, MAA and Josa vs. Clari
  group mean, gene GNPI: 1.16
SpotID 49577, pooled group mean
  mean group, LOC54543: 1.02
SpotID 49580, MAA and Josa vs. Clari
  group mean, gene PSMC4: 0.99
SpotID 49606, pooled group mean
  mean group, CSTF3: 1.07
SpotID 49608, MAA and Josa vs. Clari
  group mean, gene POU4F1: 1.05
SpotID 49618, MAA and Josa vs. Clari
  group mean, gene CLN2: 1.15
SpotID 49618, pooled group mean
  mean group, CLN2: 1.12
SpotID 49649, MAA and Josa vs. Clari
  group mean, gene FGF2: 0.76
SpotID 49650, MAA and Josa vs. Clari
  group mean, gene MAP3K10: 1.16
SpotID 49673, pooled group mean
  mean group, BTN3A2: 1.11
SpotID 49679, pooled group mean
  mean group, SERPINF1: 1.09
SpotID 49688, MAA and Josa vs. Clari
  group mean, gene GSK3B: 1.26
SpotID 49698, MAA and Josa vs. Clari
  group mean, gene CAT: 1.08
SpotID 49705, MAA and Josa vs. Clari
  group mean, gene PCYT2: 1.24
SpotID 49715, MAA and Josa vs. Clari
  group mean, gene HNRPD: 0.88
SpotID 49735, MAA and Josa vs. Clari
  group mean, gene GSK3B: 1.13
SpotID 49737, MAA and Josa vs. Clari
  group mean, gene CHAF1B: 0.84
SpotID 49737, pooled group mean
  mean group, CHAF1B: 0.88
SpotID 49744, MAA and Josa vs. Clari
  group mean, gene USF2: 1.07
SpotID 49747, MAA and Josa vs. Clari
  group mean, gene RPLP0: 1.09

Source: patent publication US20070172957A1, “Methods of identifying anti-inflammatory macrolides” (TAISHO PHARMACEUTICAL CO., LTD., priority 2004, published 2007)
